From paper PMC7504215, “Copper(II) Complexes with Mixed Heterocycle Ligands as Promising Antibacterial and Antitumor Species” (Molecules, 2020)
Like-named read-outs stand apart in the source and are kept apart here.

Experiments:
[1] = Superoxide scavenging ability by EPR spectroscopy; conditions: 2.5 μM complex in DMSO, O2− 10, 20 and 30 µM
Procedure: The superoxide scavenging ability of the complexes was tested using the KO2 compound as a superoxide source combined with EPR spectroscopy. […] The KO2 was dissolved by complexation with dibenzo-18-crown-6-ether.

P. aeruginosa 9027 = assay: MBEC assay, micro-titer method (biofilm); type: cell-based, Pseudomonas aeruginosa
Procedure: (§1) The antibacterial assays were performed on Gram-negative (Escherichia coli ATCC 25922, E. coli 5, Pseudomonas aeruginosa ATCC 27853, P. aeruginosa ATCC 9027) and Gram-positive (Staphylococcus aureus ATCC 25923, S. aureus ATCC 6538, MRSA (Meticillin-resistant S. aureus) 388, ATCC, American Type Culture Collection) bacterial strains. Microbial suspensions (1.5 × 10^8 CFU/mL; colony forming units (CFU)) corresponding to 0.5 McFarland density obtained from 15 to 18-h bacterial cultures developed on solid media were used. The antimicrobial activity was tested on Mueller–Hinton agar medium.
(§2) The assessment of the complexes’ influence on the microbial ability to colonize an inert substratum with the establishment of the minimal biofilm eradication concentration (MBEC) was performed by the micro-titer method, following previously described protocols. The absorbance at 490 nm was measured with an Apollo LB 911ELISA (Berthold Technologies GmbH & Co. KG, Waltham, MA, USA) reader. All experiments were performed in triplicates.

P. aeruginosa 27853 = assay: MBEC assay, micro-titer method (biofilm); type: cell-based, Pseudomonas aeruginosa
Procedure: as §1, §2

B16 cells = assay: Phalloidin staining and cell imaging (cytoskeleton, nucleus); type: cell-based, Mouse; conditions: 24 h, 6 μg/mL
Procedure: Cytoskeleton actin filaments of BJ and B16 cells were stained with phalloidin-FITC (Sigma-Aldrich, USA) according to the manufacturer’s protocol. Briefly, cells were washed with PBS (5 min, 3 times), fixed for 5 min with 3% paraformaldehyde, washed three times with PBS, permeabilized with 0.1% Triton X-100 in PBS for 15 min, washed three times with PBS, stained with 20 μg mL^−1 phalloidin-FITC at room temperature for 1 h and washed again three times with PBS. Cell nucleus was stained with 8 μM of Hoechst 33342 solution for 10 min, washed three times with PBS and finally, mounted and sealed on glass slides with FluorSave™ Reagent (Merck Millipore, Germany). The fluorescence images were acquired using an Andor DSD2 Confocal Unit (Andor, Ireland), mounted on an epifluorescence microscope, Olympus BX-51 (Olympus, Germany), equipped with a 40x and 100x objective and an appropriate DAPI/Hoechst filter cube (excitation filter 390/40 m, dichroic mirror 405 nm and emission filter 452/45 nm) and GFP/FITC filter cube (excitation filter 466/40 nm, dichroic mirror 488 nm and emission filter 525/54 nm).

[2] = test system: B16 (melanoma) tumor cells; assay: MTT cell viability assay; type: cell-based, Mouse
Procedure: The cytotoxicity of ligand and copper(II) complexes was tested on normal BJ cell as well as on B16 (melanoma) tumor cells, which were grown for 48 h in culture medium containing the tested complexes in 0–25 μg/mL concentration range.
Human fibroblast cells (BJ-ATCC CRL-2522, Manassas, VA, USA) were grown in minimal essential medium (MEM) supplemented with 2 mM L-Glutamine, 10% fetal calf serum (FCS), 100 units/mL of penicillin and 100 µg/mL of streptomycin at 37 °C in a humidified incubator under an atmosphere containing 5% CO2. Mouse melanoma cells (B16-ATCC CRL-6475, Manassas, VA, USA) were grown in DMEM (Dulbecco’s Modified Eagle Medium) supplemented with similar reagents as MEM. All cell cultivation media and reagents were purchased from Biochrom AG (Berlin, Germany) and Sigma-Aldrich (Darmstadt, Germany).
Cell viability was evaluated using 3-(4,5-dimethylthiazol-2-yl)-2,5-diphenyltetrazolium bromide (MTT) assay, as described previously. First, the cells were seeded in 96-well plates (20,000 cells/well) and cultured for 24 h in medium. After overnight incubation, the medium was changed and the investigated sample in concentration varying from […] was added for 24 h. The negative control was represented by cells cultivated in medium without the investigated compounds. Following incubation, the medium was changed and the MTT solution was added to each well to a final concentration of 1 mg/mL and incubated for additional 4 h, at 37 °C. Finally, the medium was collected and DMSO was used to dissolve the insoluble formazan product. The absorbance of the samples was recorded at 570 nm using a plate reader Mithras 940 (Berthold). The data were corrected for the background and the percentage of viable cells was obtained using the equation:Cell viability = [(A570 of treated cells)/(A570 of untreated cells)] × 100%
The half-maximal inhibitory concentration (IC50) was determined by fitting the data with a logistical sigmoidal equation using the software Origin 8.1 from Microcal Inc. (Los Angeles, CA, USA).

sod1Δ cells = type: cell-based, Saccharomyces cerevisiae; conditions: sod1Δ cells lacking Cu/Zn-superoxide dismutase Sod1
Procedure: (§3) The Saccharomyces cerevisiae laboratory strain BY4741 (MATa; his3Δ1; leu2Δ0; met15Δ0; ura3Δ0), considered wild type (WT), and the isogenic strains sod1Δ and sod2Δ lacking the genes SOD1 (encoding Cu/Zn-superoxide dismutase) and SOD2 (encoding Mn-superoxide dismutase) were purchased from EUROSCARF (Frankfurt, Germany). Cells were maintained and manipulated and grown in YPD medium (1% w/v yeast extract, 2% w/v peptone, 2% w/v glucose; 2% w/v agar was added for solid media). Complexes were added to autoclaved media from DMSO sterile stocks (10 mM). To determine the effect of compounds on yeast growth, a fresh overnight pre-culture was 10^3-fold diluted in YPD and incubated (200 rpm, 30 °C) until the culture reached a density of 5 × 10^5 cells/mL. At this point, the compounds were added to the desired concentrations, and cell proliferation was monitored at 660 nm in a 96-well multi-scanner autoreader plate reader equipped with a thermostat and shaker (Varioskan Thermo Fischer Scientific, Vantaa, Finland). The uptake of compounds by yeast cells was determined indirectly by measuring the increase of the total cellular copper content normalized to the total cellular protein determined by Bradford assay. All determinations were done on three biological replicates. The IC50 was calculated by nonlinear regression analysis using the Graphpad Prism software.

sod2Δ cells = type: cell-based, Saccharomyces cerevisiae; conditions: sod2Δ cells lacking Mn-superoxide dismutase Sod2
Procedure: as §3

[3] = B16 cells, 48 h, MTT, read-out: IC50 B16 Cells 48 h

Row | Compound | Superoxide scavenging (EPR signal decrease) [1] | MBEC value (P. aeruginosa 9027) | MBEC value (P. aeruginosa 27853) | Cell morphology (cytoskeleton and nucleus) (B16 cells) | IC50 B16 Cells 24 h ([2]; B16 cells, 24 h, MTT) | IC50 ([2]; B16 cells, 24 h, MTT, read-out: IC50 B16 Cells 24 h) | IC50 B16 Cells 48 h ([2]; B16 cells, 48 h, MTT) | IC50 [2, 3] | Toxicity compared with WT yeast (sod1Δ cells) | Toxicity compared with WT yeast (sod2Δ cells) | Effect on viability of B16 cells ([2]; 24 h of treatment, 0–25 μg/mL)
1 | Cc1cc(-c2ccccc2)nc2ncnn12.[Cu+2].[O-][Cl+3]([O-])([O-])[O-].[O-][Cl+3]([O-])([O-])[O-].c1cnc2c(c1)ccc1cccnc12.c1cnc2c(c1)ccc1cccnc12 [(2), [Cu(phen)2(pmtp)](ClO4)2] | trap the superoxide radicals | 0.01 mM | 0.09 mM | affects the cell morphology | 6.25 µg/mL | 7.5 µM | 3.72 µg/mL | 4 µM | even more toxic | even more toxic | 
2 | Cc1cc(-c2ccccc2)nc2ncnn12.[Cu+2].[O-][Cl+3]([O-])([O-])[O-].[O-][Cl+3]([O-])([O-])[O-].c1ccc(-c2ccccn2)nc1.c1ccc(-c2ccccn2)nc1 [(1), [Cu(bpy)2(pmtp)](ClO4)2] | trap the superoxide radicals | 0.20 mM | 0.40 mM | does not alter the morphology of the cells |  |  | 15.46 µg/mL | 20 µM | even more toxic | even more toxic | did not affect the viability of B16 cells
